In patent US20260265199A1, “CRYSTALLINE FORMS OF (R)-2-AMINO-5-(4-(2-(3,5-DIFLUOROPHENYL)-2-HYDROXYACETAMIDO)-2-METHYLPHENYL)-N-ISOPROPYLNICOTINAMIDE AND METHODS FOR USING THE SAME” (HIBERCELL, INC., priority 2023, published 2026):
Where a name gives a salt, the structure may show the parent alone. Read-outs that look alike come from different tables or passages of the source.

Assay: Phase 1a study: pharmacokinetics after oral BID dosing in subjects with advanced solid tumors
Assay type: in vivo, human
Conditions: for Tmax / Cmax / half-life / AUC(0-t) / Vd/F / AUC(0-inf) / AUC: human, in vivo; for Vd/F: read-out: Vz/F; for AUC: read-out: AUC0-τ
Description: This example describes a first in human, Phase 1a, multi-center, open-label study to establish the maximum tolerated dose (MTD) and evaluate the safety and tolerability of oral dosing of Form A of the hemi-fumarate salt of the compound of formula (I) (Example 11) in a dose-escalating fashion. Form A of the hemi-fumarate salt was orally administered BID every day with food or within 30 minutes of completing a meal, starting at 25 mg, with doses escalating to 50, 100, 200, 400, 600, and 900 mg BID as safety allows for each 3-week treatment cycle.
Up to 36 qualified subjects at 3 to 5 US sites, who have specific tumor types of renal cell carcinoma (RCC), gastric cancer (GC), metastatic breast cancer (MBC), small cell lung cancer (SCLC), and other solid tumors (e.g., non-small cell lung cancer, colorectal cancer, carcinoma of unknown primary) with the exception of rapidly progressing neoplasms (e.g., pancreatic cancer, glioblastoma, hepatocellular carcinoma) received Form A of the hemi-fumarate salt. Every effort was made to ensure approximately 50% of all subjects enrolled were subjects with RCC and GC. The starting dose level was 25 mg twice daily (BID), escalating to 50, 100, and 200 mg BID as safety allows, following the Bayesian Optimal Interval (BOIN) design. The safety monitoring committee (SMC) evaluated the dose-limiting toxicities (DLTs) and cumulative safety and PK data at the end of each cohort. Based on the SMC recommendations after a comprehensive review of PK and safety data for 200 mg BID dose, higher dose levels were evaluated, starting with 400 mg BID. The dose escalated to 600 mg and then 900 mg following the BOIN design starting with 1 subject at each escalated dose, until the MTD was reached or the sponsor or SMC declares the dose most appropriate for clinical development. This Phase 1a will be expanded into a Phase 1b/2a study through a protocol amendment and will then assess the dose and tumor type(s) selected in Phase 1a as the most appropriate for further clinical development. Subjects were dosed until unacceptable toxicity, disease progression per immune-related Response Evaluation Criteria in Solid Tumors (iRECIST), subject withdrawal, any other administrative reasons, or after 2 years of treatment, whichever occurs first. Efficacy was assessed via Response Evaluation Criteria in Solid Tumors 1.1 (RECIST 1.1); computed tomography (CT) scans were conducted every 6 weeks. Safety, including occurrence of dose-limiting toxicities (DLTs), pharmacokinetics (PK), and biomarker parameters were also assessed.
Form A of the hemi-fumarate salt was orally administered BID with food or within 30 minutes of completing a meal, starting at 25 mg, with doses escalating to 50, 100, 200, 400, 600 and 900 mg BID as safety allowed. Up to 24 subjects were enrolled to ensure 12 subjects completed the study at the estimated MTD of Form A of the hemi-fumarate salt. Dosing occurred in 3-week cycles. Subjects spent Cycle 1/Day 1 (C1D1) in the clinic followed by an overnight stay for safety monitoring and PK sampling. Subjects were hospitalized for administration of first 3 doses: CID1 am and pm doses, and Cycle 1/Day 2 (C1D2) am dose; on Days 8, 15, and 21 the am dose was taken in the clinic after the planned PK samples. All other doses were self administered at home.
Results of Cohorts 1 to 6 the study are detailed in Tables 47-50 below.

[1] = po, 300 mg, 300 mg single oral dose, Cycle 1 Day 1, geometric mean, N = 4
[2] = po, 300 mg, 300 mg twice daily oral, Cycle 1 Day 21, point estimate, N = 1
[3] = po, 400 mg, 400 mg single oral dose, Cycle 1 Day 1, geometric mean, N = 3
[4] = po, 600 mg, 600 mg single oral dose, Cycle 1 Day 1, point estimate, N = 1
[5] = po, 600 mg, 600 mg twice daily oral, Cycle 1 Day 21, point estimate, N = 1

For `Cc1cc(NC(=O)[C@H](O)c2cc(F)cc(F)c2)ccc1-c1cnc(N)c(C(=O)NC(C)C)c1` [Form A of the hemi-fumarate salt, (R)-2-amino-5-(4-(2-(3,5-difluorophenyl)-2-hydroxyacetamido)-2-methylphenyl)-N-isopropylnicotinamide], the Tmax (po, 200 mg, 200 mg twice daily oral, Cycle 1 Day 21, median, N = 4) was 5 h, the Cmax [1] was 1140 ng/mL and the half-life (po, 300 mg, 300 mg single oral dose, Cycle 1 Day 1, geometric mean, N = 4, interpret with caution, terminal elimination phase not well captured, read-out: t1/2 (converted)) was 6.88 h. It also gave an AUC(0-t) (po, 300 mg, 300 mg single oral dose, Cycle 1 Day 1, geometric mean, N = 4, read-out: AUC0-12) of 8610 ng·h/mL, an AUC(0-t) (po, 300 mg, 300 mg single oral dose, Cycle 1 Day 1, geometric mean, N = 4, read-out: AUC0-last) of 8610 ng·h/mL and a Vd/F [1] of 619 L. It also gave a Tmax (po, 300 mg, 300 mg single oral dose, Cycle 1 Day 1, median, N = 4) of 7 h, a Cmax [2] of 3030 ng/mL and a Tmax [2] of 8 h. For the same compound, the AUC(0-t) (po, 300 mg, 300 mg twice daily oral, Cycle 1 Day 21, point estimate, N = 1, read-out: AUC0-last) was 28400 ng·h/mL, the Cmax [3] was 649 ng/mL and the half-life (po, 400 mg, 400 mg single oral dose, Cycle 1 Day 1, geometric mean, N = 3, interpret with caution, terminal elimination phase not well captured, read-out: t1/2 (converted)) was 6.79 h. For the same compound, the AUC(0-t) (po, 400 mg, 400 mg single oral dose, Cycle 1 Day 1, geometric mean, N = 3, read-out: AUC0-12) was 3830 ng·h/mL, the AUC(0-t) (po, 400 mg, 400 mg single oral dose, Cycle 1 Day 1, geometric mean, N = 3, read-out: AUC0-last) was 3830 ng·h/mL and the Vd/F [3] was 240 L. It also gave a Tmax (po, 400 mg, 400 mg single oral dose, Cycle 1 Day 1, median, N = 3) of 2 h, a half-life (po, 400 mg, 400 mg twice daily oral, Cycle 1 Day 21, N = 2, interpret with caution, terminal elimination phase not well captured, read-out: t1/2 (converted)) of 10.8 h and a Vd/F (po, 400 mg, 400 mg twice daily oral, Cycle 1 Day 21, N = 2) of 122 L. The Cmax (po, 400 mg, 400 mg twice daily oral, Cycle 1 Day 21, geometric mean, N = 2) was 3680 ng/mL, the AUC(0-t) (po, 400 mg, 400 mg twice daily oral, Cycle 1 Day 21, geometric mean, N = 2, read-out: AUC0-last) was 30800 ng·h/mL and the half-life (po, 400 mg, 400 mg twice daily oral, Cycle 1 Day 21, geometric mean, N = 2, read-out: t1/2, eff (converted)) was 38.5 h. It also gave a Tmax (po, 400 mg, 400 mg twice daily oral, Cycle 1 Day 21, median, N = 2) of 2.5 h, a Cmax [4] of 1460 ng/mL and a Tmax [4] of 2 h. For the same compound, the AUC(0-t) (po, 600 mg, 600 mg single oral dose, Cycle 1 Day 1, point estimate, N = 1, read-out: AUC0-12) was 11600 ng·h/mL, the AUC(0-t) (po, 600 mg, 600 mg single oral dose, Cycle 1 Day 1, point estimate, N = 1, read-out: AUC0-last) was 11600 ng·h/mL and the Cmax [5] was 5990 ng/mL. It also gave a Tmax [5] of 12 h, an AUC(0-t) (po, 600 mg, 600 mg twice daily oral, Cycle 1 Day 21, point estimate, N = 1, read-out: AUC0-last) of 60800 ng·h/mL and a half-life (po, 600 mg, 600 mg twice daily oral, Cycle 1 Day 21, point estimate, N = 1, read-out: t1/2, eff (converted)) of 39.1 h. The AUC(0-inf) (25 mg single oral dose, Cycle 1 Day 1, geometric mean, N = 3) was 2200 ng·h/mL, the AUC (25 mg twice daily oral, Cycle 1 Day 21, geometric mean, N = 3) was 4110 ng·h/mL and the AUC(0-inf) (50 mg single oral dose, Cycle 1 Day 1, geometric mean, N = 3) was 5650 ng·h/mL. It also gave an AUC (50 mg twice daily oral, Cycle 1 Day 21, geometric mean, N = 3) of 9070 ng·h/mL, an AUC (100 mg twice daily oral, Cycle 1 Day 21, geometric mean, N = 3) of 11700 ng·h/mL and an AUC(0-inf) (200 mg single oral dose, Cycle 1 Day 1, geometric mean, N = 5) of 18000 ng·h/mL. For the same compound, the AUC (200 mg twice daily oral, Cycle 1 Day 21, geometric mean, N = 4) was 27200 ng·h/mL, the AUC(0-inf) (300 mg single oral dose, Cycle 1 Day 1, geometric mean, N = 4) was 4810 ng·h/mL and the AUC (300 mg twice daily oral, Cycle 1 Day 21, point estimate, N = 1) was 28400 ng·h/mL. The half-life (300 mg twice daily oral, Cycle 1 Day 21, point estimate, N = 1, read-out: t1/2, eff (converted)) was 19.4 h, the AUC(0-inf) (400 mg single oral dose, Cycle 1 Day 1, geometric mean, N = 3) was 16300 ng·h/mL and the AUC (400 mg twice daily oral, Cycle 1 Day 21, geometric mean, N = 2) was 51200 ng·h/mL. The AUC (600 mg twice daily oral, Cycle 1 Day 21, point estimate, N = 1) was 60800 ng·h/mL, the Exposure versus dose (oral BID with food, 25 mg to 600 mg dose range, subjects with advanced solid tumors) was “increased roughly proportional to the increase in dose” and the Time to steady-state (oral BID, based on similar trough concentrations on Cycle 1, Days 8, 15 and 21) was “achieved by Cycle 1, Day 8”.
